“And” between values parts separate entries of the source, which are not always exact repeats. Equal values may be shown once.
With `C=CC(=O)Nc1cn(-c2cccnc2)nc1Cl` the melting point was 148 to 153 °C. `C=CC(=O)N(CC)c1c[nH]nc1Cl` showed a melting point of 156 to 160 °C. For `CCN(C(=O)CCS)c1cn(-c2cccnc2)nc1Cl`, the melting point was 70 to 73 °C. With `C=CC(=O)Nc1c[nH]nc1Cl` the melting point was 182 °C (dec.). Compound `CC(=O)SCCC(=O)Nc1c[nH]nc1Cl` has a melting point of 140 to 143 °C. `CCN(C(=O)CCSC(C)=O)c1c[nH]nc1Cl` showed a melting point of 98 to 99 °C. In the case of `CC(=O)SCCC(=O)Nc1cn(-c2cccnc2)nc1Cl`, the melting point is reported as 163 to 166 °C and 168 to 171 °C.

— patent US20180186753A1 (published 2018)
